Experimental data from patent US20150353495A1 (PORTOLA PHARMACEUTICALS, INC., priority 2010, published 2015).

Tests used:
JAK1 = target: T1, JAK1 (Homo sapiens, UniProt P23458); assay: Z'-LYTE kinase assay JAK1; format: biochemical
T1 construct: 5 μl of catalytic domain recombinant Kinase enzyme+Tyr peptide substrate (Invitrogen, CA); purchased Invitrogen
In short: (§1)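 In duplicate wells, each test molecule (1% final DMSO) is incubated with recombinant kinase catalytic domain, Tyr6 peptide substrate and ATP for one hour at room temperature; a site-specific protease is then added for another hour before fluorescence reading.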

JAK3 = target: T2, JAK3 (Homo sapiens, UniProt P52333); assay: Z'-LYTE kinase assay JAK3; format: biochemical
T2 construct: 5 μl of catalytic domain recombinant Kinase enzyme+Tyr peptide substrate (Invitrogen, CA); purchased Invitrogen
T2 sequence (P52333 822-1111 limits assumed): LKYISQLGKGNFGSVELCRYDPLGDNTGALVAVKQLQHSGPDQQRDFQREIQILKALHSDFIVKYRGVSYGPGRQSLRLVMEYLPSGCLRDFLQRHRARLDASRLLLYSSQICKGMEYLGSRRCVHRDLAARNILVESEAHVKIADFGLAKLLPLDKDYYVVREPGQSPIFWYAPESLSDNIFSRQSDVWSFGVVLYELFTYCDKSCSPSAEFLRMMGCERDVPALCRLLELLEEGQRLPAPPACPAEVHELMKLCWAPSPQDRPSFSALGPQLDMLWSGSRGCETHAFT
In short: as §1

TYK2 = target: T3, TYK2 (Homo sapiens, UniProt P29597); assay: Z'-LYTE kinase assay TYK2; format: biochemical
T3 construct: 5 μl of catalytic domain recombinant Kinase enzyme+Tyr peptide substrate (Invitrogen, CA); purchased Invitrogen
T3 sequence (P29597 897-1176 limits assumed): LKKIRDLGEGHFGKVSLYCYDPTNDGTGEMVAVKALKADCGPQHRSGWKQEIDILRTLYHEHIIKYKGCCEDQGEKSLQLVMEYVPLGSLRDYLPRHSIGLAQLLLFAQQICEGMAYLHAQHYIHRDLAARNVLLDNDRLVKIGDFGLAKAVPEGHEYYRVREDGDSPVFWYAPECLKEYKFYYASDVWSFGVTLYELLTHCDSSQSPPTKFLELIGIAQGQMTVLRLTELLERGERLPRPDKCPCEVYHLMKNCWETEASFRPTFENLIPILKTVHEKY
In short: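 IC50 derived by 4-parameter logistic fit of percent substrate phosphorylation relative to uninhibited wells. Tyr6 peptide phosphorylated by recombinant TYK2 catalytic domain for 1 h at room temperature (1% DMSO), cleaved by development protease 1 h, FRET emission ratio 445/520 nm.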

[1] = test system: JAK1/3 signaling to STAT6 in Ramos B cells; assay: IL4 stimulation of JAK1/3 signaling to STAT6 in Ramos B cells (pSTAT6 Y641, FACS); format: cell-based; conditions: Homo sapiens; for inhibition at 0.2 µM: 0.2 uM compound, read-out: IL-4/STAT6 in Ramos Percent Inhibition at 0.2 uM; for inhibition at 1 µM: 1.0 uM compound, read-out: IL-4/STAT6 in Ramos Percent Inhibition at 1.0 uM
Protocol: IL4 stimulation of JAK1/3 signaling to STATE in Ramos B cells:
As an alternative strategy to measure effect of JAK3 inhibitors on JAK1/3 dependent cytokine signaling pathways, IL4 stimulation of the Ramos Burkett's B cell line is used. IL4 engages a receptor consisting of the IL4 receptor alpha chain and the common gamma chain. […] Ramos B cells are suspended in tissue culture media containing 10% fetal calf serum at 10×10̂6 cells/ml. 100 μl aliquots are pre-treated for 1 hour with various concentrations of compound, and then stimulated for 15 minutes with 15 ng IL4. The signaling reaction is terminated by fixing in 2% paraformaldehyde for 10 minutes at room temperature. Fixed cells are then washed and permeablized by suspension in 100% methanol at −80° C. Following overnight incubation at 4° C., cells are washed and resuspended in PBS containing 0.5% bovine serum albumin containing pSTAT6 Y641-PE conjugated antibody. After 1 hour incubation, cells are washed and the extent of STAT6 phosphorlyation in Ramos cells is measured by FACS analysis.

JAK2 = target: T4, JAK2 (Homo sapiens, UniProt O60674); assay: Z'-LYTE kinase assay JAK2; format: biochemical
T4 construct: 5 μl of catalytic domain recombinant Kinase enzyme+Tyr peptide substrate (Invitrogen, CA); purchased Invitrogen
T4 sequence (O60674 849-1124 limits assumed): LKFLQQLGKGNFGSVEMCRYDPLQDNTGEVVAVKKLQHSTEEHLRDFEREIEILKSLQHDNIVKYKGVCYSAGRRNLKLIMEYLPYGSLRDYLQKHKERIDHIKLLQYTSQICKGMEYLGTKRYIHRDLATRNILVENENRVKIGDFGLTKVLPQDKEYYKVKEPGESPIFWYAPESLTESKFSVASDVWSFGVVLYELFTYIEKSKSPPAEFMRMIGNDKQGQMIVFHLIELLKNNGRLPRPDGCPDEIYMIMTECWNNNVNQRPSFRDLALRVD
In short: as §1

T1 sequence (P23458 875-1153 limits assumed): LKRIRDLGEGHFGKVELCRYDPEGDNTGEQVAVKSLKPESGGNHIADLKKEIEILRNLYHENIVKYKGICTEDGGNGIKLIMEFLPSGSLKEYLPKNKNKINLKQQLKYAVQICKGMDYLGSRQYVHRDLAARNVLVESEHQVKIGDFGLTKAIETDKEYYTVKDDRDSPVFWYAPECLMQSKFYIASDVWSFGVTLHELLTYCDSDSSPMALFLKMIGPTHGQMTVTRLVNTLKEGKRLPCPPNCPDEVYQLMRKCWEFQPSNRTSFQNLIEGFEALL

| Compound | IC50 (JAK1) | IC50 (JAK3) | IC50 (TYK2) | inhibition at 0.2 µM [1] | inhibition at 1 µM [1] | IC50 (JAK2) |
| --- | --- | --- | --- | --- | --- | --- |
| CC(=O)N1CCN(c2ccc(Nc3cc(NCC4CCCC4)c(C(N)=O)cn3)cc2)CC1 [Example 245, 6-(4-(4-acetylpiperazin-1-yl)phenylamino)-4-(cyclopentylmethylamino)nicotinamide] | 100 to 1000 nM | 1 to 10 nM | 10 to 100 nM | 14% | 38% | 10 to 100 nM |
| CC(=O)N1CCN(c2ccc(Nc3cc(N[C@H]4CCc5ccccc54)c(C(N)=O)cn3)cc2)CC1 [Example 255, (S)-6-(4-(4-acetylpiperazin-1-yl)phenylamino)-4-(2,3-dihydro-1H-inden-1-ylamino)nicotinamide] | > 1000 nM | 10 to 100 nM | 100 to 1000 nM | 11% | 18% | 100 to 1000 nM |
| NC(=O)c1cnc(Nc2ccc(OCC(=O)N3CCOCC3)cc2)cc1NCc1ccccc1 [Example 80, 4-(benzylamino)-6-(4-(2-morpholino-2-oxoethoxy)phenylamino)nicotinamide] | > 1000 nM | 10 to 100 nM | > 1000 nM | 23% | 43% | 100 to 1000 nM |
| NC(=O)c1cnc(Nc2ccc(C3CCNCC3)cc2)cc1NCc1ccccc1F [Example 106, 4-(2-fluorobenzylamino)-6-(4-(piperidin-4-yl)phenylamino)nicotinamide] | 100 to 1000 nM | 1 to 10 nM | 100 to 1000 nM | 28% | 49% | 100 to 1000 nM |
| NC(=O)c1cnc(Nc2cccc(OCC(=O)N3CCOCC3)c2)cc1NCc1ccccc1 [Example 430, 4-(benzylamino)-6-(3-(2-morpholino-2-oxoethoxy)phenylamino)nicotinamide] | 100 to 1000 nM | 1 to 10 nM | 100 to 1000 nM | 15% | 36% | 100 to 1000 nM |
| CN(C)C(=O)c1cccc(Nc2cc(NCc3ccccc3)c(C(N)=O)cn2)c1 [Example 247, 4-(benzylamino)-6-(3-(dimethylcarbamoyl)phenylamino)nicotinamide] | 100 to 1000 nM | 10 to 100 nM | 100 to 1000 nM | 6% | 24% | 100 to 1000 nM |
| NC(=O)c1cnc(Nc2ccc(CN3CCOCC3)cc2)cc1NCc1ccccc1 [Example 431, 4-(benzylamino)-6-(4-(morpholinomethyl)phenylamino)nicotinamide] | > 1000 nM | 1 to 10 nM | > 1000 nM | 7% | 24% | 100 to 1000 nM |
| COc1ccc(Nc2cc(NCc3ccccc3)c(C(N)=O)cn2)cc1 [Example 12, 4-(benzylamino)-6-(4-methoxyphenylamino)nicotinamide] | > 1000 nM | 10 to 100 nM | > 1000 nM | 15% | 11% | 100 to 1000 nM |
| NC(=O)c1cnc(Nc2cccc(OCCN3CCOCC3)c2)cc1NCc1cccc(F)c1 [Example 228] | 100 to 1000 nM | 1 to 10 nM | > 1000 nM | 24% | 48% | 100 to 1000 nM |
| CC(=O)N1CCN(c2ccc(Nc3cc(NCc4cccnc4)c(C(N)=O)cn3)cc2)CC1 [Example 233] | 100 to 1000 nM | 1 to 10 nM | 100 to 1000 nM | 17% | 33% | 100 to 1000 nM |
| COCCOc1ccc(Nc2cc(NCc3ccccc3)c(C(N)=O)cn2)cc1 [Example 432, 4-(benzylamino)-6-(4-(2-methoxyethoxyl)phenylamino)nicotinamide] | > 1000 nM | 10 to 100 nM | > 1000 nM | 16% | 17% | 100 to 1000 nM |
| NC(=O)c1cnc(Nc2ccc(OCCN3CCCCC3)cc2)cc1NCc1ccccc1 [Example 81, 4-(benzylamino)-6-(4-(2-(piperidin-1-yl)ethoxy)phenylamino)nicotinamide] | > 1000 nM | 10 to 100 nM | > 1000 nM | 29% | 48% | 100 to 1000 nM |
| CN(C)C(=O)c1ccc(Nc2cc(NCc3cc(F)ccc3F)c(C(N)=O)cn2)cc1 [Example 92, 4-(2,5-difluorobenzylamino)-6-(4-(dimethylcarbamoyl)phenylamino)nicotinamide] | 100 to 1000 nM | 1 to 10 nM | 100 to 1000 nM | 41% | 67% | 10 to 100 nM |
| NC(=O)c1cnc(Nc2ccc(N3CCCC3=O)c(Cl)c2)cc1NCc1cccc(F)c1 [Example 62, 6-(3-chloro-4-(2-oxopyrrolidin-1-yl)phenylamino)-4-(3-fluorobenzylamino)nicotinamide] | 100 to 1000 nM | 10 to 100 nM | > 1000 nM | 29% | 42% | 100 to 1000 nM |
| NC(=O)c1cnc(Nc2cccc(OCCN3CCCC3)c2)cc1NCc1cccc(F)c1 [Example 58, 4-(3-fluorobenzylamino)-6-(3-(2-(pyrrolidin-1-yl)ethoxy)phenylamino)nicotinamide] | 100 to 1000 nM | 1 to 10 nM | > 1000 nM | 33% | 60% | 10 to 100 nM |
| Cc1ccc(Nc2cc(NCc3ccccc3)c(C(N)=O)cn2)cc1 [Example 10, 4-(benzylamino)-6-(p-tolylamino)nicotinamide] | > 1000 nM | 100 to 1000 nM | > 1000 nM | 6% | 20% | > 1000 nM |
| NC(=O)c1cnc(Nc2ccc(C(=O)N3CCOCC3)cc2)cc1NCc1ccccc1 [Example 40, 4-(benzylamino)-6-(4-(morpholine-4-carbonyl)phenylamino)nicotinamide] | 100 to 1000 nM | 1 to 10 nM | 100 to 1000 nM | 46% | 69% | 100 to 1000 nM |
| CN(C)C(=O)c1ccc(Nc2cc(NCc3ccccc3)c(C(N)=O)cn2)cc1 [Example 248, 4-(benzylamino)-6-(4-(dimethylcarbamoyl)phenylamino)nicotinamide] | 100 to 1000 nM | 1 to 10 nM | 100 to 1000 nM | 24% | 50% | 100 to 1000 nM |
| CCC(=O)N1CCC(c2ccc(Nc3cc(NCc4cccs4)c(C(N)=O)cn3)cc2)CC1 [Example 197, 6-(4-(1-propionylpiperidin-4-yl)phenylamino)-4-(thiophen-2-ylmethylamino)nicotinamide] | 100 to 1000 nM | 1 to 10 nM | 100 to 1000 nM |  |  | 100 to 1000 nM |
| NC(=O)c1cc(F)c(Nc2ccc(OCCN3CCCC3)cc2)nc1NCc1ccccc1 [Example 26, 2-(benzylamino)-5-fluoro-6-(4-(2-(pyrrolidin-1-yl)ethoxy)phenylamino)nicotinamide] | > 1000 nM | > 1000 nM | > 1000 nM |  |  | > 1000 nM |
| NC(=O)c1cc(F)c(Nc2ccc(OCCN3CCCC3)cc2)nc1NC1CCCC1 [Example 25, 2-(cyclopentylamino)-5-fluoro-6-(4-(2-(pyrrolidin-1-yl)ethoxy)phenylamino)nicotinamide] | > 1000 nM | > 1000 nM | > 1000 nM |  |  | > 1000 nM |
| CCC(=O)N1CCC(c2ccc(Nc3cc(N[C@H](C)c4ccccc4)c(C(N)=O)cn3)cc2)CC1 [Example 199, (R)-4-(1-phenylethylamino)-6-(4-(1-propionylpiperidin-4-yl)phenylamino)nicotinamide] | > 1000 nM | 10 to 100 nM | > 1000 nM |  |  | 100 to 1000 nM |
| CC(=O)Nc1cccc(Nc2nc(N[C@H](C)c3ccccc3)c(C(N)=O)cc2F)c1 [Example 20, (R)-6-(3-acetamidophenylamino)-5-fluoro-2-(1-phenylethylamino)nicotinamide] | > 1000 nM | > 1000 nM | > 1000 nM |  |  | > 1000 nM |
